Assay [1] relates to HCV genotype 1b (Con1) replicon in HUH-7 cells. Kind of assay: HCV replicon luciferase reporter assay, genotype 1b. The following applies: Hepatitis C virus, Huh-7, 72 h, HCV genotype 1b replicon luciferase, 3 days incubation, read-out: LE_1b (EC50, range). Format: cell-based. An outline of the steps: (§1)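 Replicon inhibition for both genotypes was measured as Renilla luciferase signal (EnduRen, 7.5 μM final, 2 h) after 3-day, 37° C exposure of replicon-bearing HUH-7 cells in 4% FCS DMEM, 0.5% DMSO. The 1b construct carries S1179I; the 1a H77 construct carries P1496L and S2204I. Twenty-point, 3-fold dilutions were fitted four-parametrically for EC50, and CC50 was taken from multiplexed Cell Titer-Blue.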

Assay [2] has as its system HCV genotype 1a (H77 strain) replicon in HUH-7 cells. Description: HCV replicon luciferase reporter assay, genotype 1a. Format: cell-based. The following applies: Hepatitis C virus, Huh-7, 72 h, HCV genotype 1a replicon luciferase, 3 days incubation, read-out: LE_1a (EC50, range). An outline of the steps:
as §1
(Replicon systems follow genome replication, usually without infectious particles.)

SMILES strings stand for the structures. Like-named read-outs stand apart in the source and are kept apart here.

In general, EC50 refers to the concentration giving half of the maximal effect. As for `COc1ccc2c(O[C@@H]3C[C@H]4C(=O)N[C@]5(C(=O)NS(=O)(=O)C6(C)CC6)C[C@H]5/C=C\CC[C@@H](C)C[C@@H](C)[C@H](NC(=O)OC(C)(C)C)C(=O)N4C3)ncc(N3CCN(CC(F)F)CC3)c2c1` [Compound 4173], the EC50 in assay [1] (GETYPE1B) and in assay [2] (GETYPE1A) was < 5.46 nM each time.
`CC[C@@H]1C[C@H](C)CC/C=C\[C@@H]2C[C@@]2(C(=O)NS(=O)(=O)C2(C)CC2)NC(=O)[C@@H]2C[C@@H](Oc3nccc4cc(OC)c(F)cc34)CN2C(=O)[C@H]1NC(=O)OC(C)(C)C` [Compound 4175, tert-butyl (2R,6S,7R,9R,13aS,14aR,16aS,Z)-7-ethyl-2-(7-fluoro-6-methoxyisoquinolin-1-yloxy)-9-methyl-14a-(1-methylcyclopropylsulfonylcarbamoyl)-5,16-dioxo-1,2,3,5,6,7,8,9,10,11,13a,14,14a,15,16,16a-hexadecahydrocyclopropa[e]pyrrolo[1,2-a][1,4]diazacyclopentadecin-6-ylcarbamate]: the EC50 in assay [1] and in assay [2] was < 5.46 nM in each case.
On to `CC[C@@H]1C[C@H](C)CC/C=C\[C@@H]2C[C@@]2(C(=O)NS(=O)(=O)C2(C)CC2)NC(=O)[C@@H]2C[C@@H](Oc3nccc4cc(OC)ccc34)CN2C(=O)[C@H]1NC(=O)O[C@H](C)C(F)(F)F` [Compound 4177, (R)-1,1,1-trifluoropropan-2-yl (2R,6S,7R,9R,13aS,14aR,16aS,Z)-7-ethyl-2-(6-methoxyisoquinolin-1-yloxy)-9-methyl-14a-(1-methylcyclopropylsulfonylcarbamoyl)-5,16-dioxo-1,2,3,5,6,7,8,9,10,11,13a,14,14a,15,16,16a-hexadecahydrocyclopropa[e]pyrrolo[1,2-a][1,4]diazacyclopentadecin-6-ylcarbamate], for which the EC50 in assay [1] and in assay [2] was < 5.46 nM each time.
Consider `COc1ccc2c(O[C@@H]3C[C@H]4C(=O)N[C@]5(C(=O)NS(=O)(=O)C6(C)CC6)C[C@H]5/C=C\CC[C@@H](C)C[C@@H](C)[C@H](NC(=O)OC(C)(C)C(F)(F)F)C(=O)N4C3)ncc(-c3ccc(OC)nc3)c2c1` [Compound 4178], for which the EC50 in assay [1] (GETYPE1B) and in assay [2] (GETYPE1A) was < 5.46 nM throughout.
For the compound `C[C@@H]1CC/C=C\[C@@H]2C[C@@]2(C(=O)NS(=O)(=O)C2(C)CC2)NC(=O)[C@@H]2C[C@@H](Oc3cnc4ccc(F)cc4n3)CN2C(=O)[C@@H](NC(=O)OC(C)(C)C)[C@H](C)C1` [Compound 4179, tert-butyl (2R,6S,7R,9R,13aS,14aR,16aS,Z)-2-(7-fluoroquinoxalin-2-yloxy)-7,9-dimethyl-14a-(1-methylcyclopropylsulfonylcarbamoyl)-5,16-dioxo-1,2,3,5,6,7,8,9,10,11,13a,14,14a,15,16,16a-hexadecahydrocyclopropa[e]pyrrolo[1,2-a][1,4]diazacyclopentadecin-6-ylcarbamate], the EC50 in assay [1] and in assay [2] was < 5.46 nM in each case.
On to `CCOc1cnc(O[C@@H]2C[C@H]3C(=O)N[C@]4(C(=O)NS(=O)(=O)C5(C)CC5)C[C@H]4/C=C\CC[C@@H](C)C[C@@H](CC)[C@H](NC(=O)OC(C)(C)C)C(=O)N3C2)c2ccccc12` [Compound 4180, tert-butyl (2R,6S,7R,9R,13aS,14aR,16aS,Z)-2-(4-ethoxyisoquinolin-1-yloxy)-7-ethyl-9-methyl-14a-(1-methylcyclopropylsulfonylcarbamoyl)-5,16-dioxo-1,2,3,5,6,7,8,9,10,11,13a,14,14a,15,16,16a-hexadecahydrocyclopropa[e]pyrrolo[1,2-a][1,4]diazacyclopentadecin-6-ylcarbamate], for which the EC50 in assay [1] and in assay [2] was < 5.46 nM in each case.
As for `CC[C@@H]1C[C@H](C)CC/C=C\[C@@H]2C[C@@]2(C(=O)NS(=O)(=O)C2(C)CC2)NC(=O)[C@@H]2C[C@@H](Oc3ncc(OC)c4ccc(F)cc34)CN2C(=O)[C@H]1NC(=O)OC(C)(C)C` [Compound 4181, tert-butyl (2R,6S,7R,9R,13aS,14aR,16aS,Z)-7-ethyl-2-(7-fluoro-4-methoxyisoquinolin-1-yloxy)-9-methyl-14a-(1-methylcyclopropylsulfonylcarbamoyl)-5,16-dioxo-1,2,3,5,6,7,8,9,10,11,13a,14,14a,15,16,16a-hexadecahydrocyclopropa[e]pyrrolo[1,2-a][1,4]diazacyclopentadecin-6-ylcarbamate], the EC50 in assay [1] and in assay [2] was < 5.46 nM throughout.
Turning to `CC[C@@H]1C[C@H](C)CC/C=C\[C@@H]2C[C@@]2(C(=O)NS(=O)(=O)C2(C)CC2)NC(=O)[C@@H]2C[C@@H](Oc3nccc4cc(OC)ccc34)CN2C(=O)[C@H]1NC(=O)OC(C)(C)C(F)(F)F` [Compound 4182], the EC50 in assay [1] (GETYPE1B) and in assay [2] (GETYPE1A) was < 5.46 nM each time.
As for `COc1ccc2nc(C(F)(F)F)c(O[C@@H]3C[C@H]4C(=O)N[C@]5(C(=O)NS(=O)(=O)C6(C)CC6)C[C@H]5/C=C\CC[C@@H](C)C[C@@H](C)[C@H](NC(=O)OC(C)(C)C)C(=O)N4C3)nc2c1` [Compound 4183, tert-butyl (2R,6S,7R,9R,13aS,14aR,16aS,Z)-2-(7-methoxy-3-(trifluoromethyl)quinoxalin-2-yloxy)-7,9-dimethyl-14a-(1-methylcyclopropylsulfonylcarbamoyl)-5,16-dioxo-1,2,3,5,6,7,8,9,10,11,13a,14,14a,15,16,16a-hexadecahydrocyclopropa[e]pyrrolo[1,2-a][1,4]diazacyclopentadecin-6-ylcarbamate], the EC50 in assay [1] and in assay [2] was < 5.46 nM throughout.
With `CCOc1cnc(O[C@@H]2C[C@H]3C(=O)N[C@]4(C(=O)NS(=O)(=O)C5CC5)C[C@H]4/C=C\CC[C@@H](C)C[C@@H](CC)[C@H](NC(=O)OC(C)(C)C(F)(F)F)C(=O)N3C2)c2ccccc12` [Compound 4185], the EC50 in assay [1] (GETYPE1B) and in assay [2] (GETYPE1A) was < 5.46 nM throughout.
Regarding `CC[C@@H]1C[C@H](C)CC/C=C\[C@@H]2C[C@@]2(C(=O)NS(=O)(=O)C2(C)CC2)NC(=O)[C@@H]2C[C@@H](Oc3ncc(OC)c4ccc(Cl)cc34)CN2C(=O)[C@H]1NC(=O)OC(C)(C)C(F)(F)F` [Compound 4188], the EC50 in assay [1] (GETYPE1B) and in assay [2] (GETYPE1A) was < 5.46 nM throughout.
As for `CC[C@@H]1C[C@H](C)CC/C=C\[C@@H]2C[C@@]2(C(=O)NS(=O)(=O)C2CC2)NC(=O)[C@@H]2C[C@@H](Oc3ncnc4cc(OC)ccc34)CN2C(=O)[C@H]1NC(=O)OC(C)(C)C(F)(F)F` [Compound 4189], the EC50 in assay [1] (GETYPE1B) and in assay [2] (GETYPE1A) was < 5.46 nM throughout.
With `CC[C@@H]1C[C@H](C)CC/C=C\[C@@H]2C[C@@]2(C(=O)NS(=O)(=O)C2CC2)NC(=O)[C@@H]2C[C@@H](Oc3ncc(OC)c4ccc(Cl)cc34)CN2C(=O)[C@H]1NC(=O)OC(C)(C)C(F)(F)F` [Compound 4190], the EC50 in assay [1] (GETYPE1B) and in assay [2] (GETYPE1A) was < 5.46 nM in each case.
As to `CC[C@@H]1C[C@H](C)CC/C=C\[C@@H]2C[C@@]2(C(=O)NS(=O)(=O)C2(CF)CC2)NC(=O)[C@@H]2C[C@@H](Oc3nccc4cc(OC)c(F)cc34)CN2C(=O)[C@H]1NC(=O)OC(C)(C)C(F)(F)F` [Compound 4193], the EC50 in assay [1] (GETYPE1B) and in assay [2] (GETYPE1A) was < 5.46 nM throughout.
Regarding `COc1ccc2nc(C(F)(F)F)c(O[C@@H]3C[C@H]4C(=O)N[C@]5(C(=O)NS(=O)(=O)C6(C)CC6)C[C@H]5/C=C\CC[C@@H](C)C[C@@H](C)[C@H](NC(=O)OC(C)(C)C(F)(F)F)C(=O)N4C3)nc2c1` [Compound 4195], the EC50 in assay [1] (GETYPE1B) and in assay [2] (GETYPE1A) was < 5.46 nM in each case.
On to `CC[C@@H]1C[C@H](C)CC/C=C\[C@@H]2C[C@@]2(C(=O)NS(=O)(=O)C2(C)CC2)NC(=O)[C@@H]2C[C@@H](Oc3ncc(OC)c4cc(OC)ccc34)CN2C(=O)[C@H]1NC(=O)OC(C)(C)C` [Compound 4196, tert-butyl (2R,6S,7R,9R,13aS,14aR,16aS,Z)-2-(4,6-dimethoxyisoquinolin-1-yloxy)-7-ethyl-9-methyl-14a-(1-methylcyclopropylsulfonylcarbamoyl)-5,16-dioxo-1,2,3,5,6,7,8,9,10,11,13a,14,14a,15,16,16a-hexadecahydrocyclopropa[e]pyrrolo[1,2-a][1,4]diazacyclopentadecin-6-ylcarbamate], for which the EC50 in assay [1] and in assay [2] was < 5.46 nM in each case.
Turning to `CC[C@@H]1C[C@H](C)CC/C=C\[C@@H]2C[C@@]2(C(=O)NS(=O)(=O)C2(C)CC2)NC(=O)[C@@H]2C[C@@H](Oc3ncc(OC)c4cc(OC)ccc34)CN2C(=O)[C@H]1NC(=O)OC(C)(C)C(F)(F)F` [Compound 4197], the EC50 in assay [1] (GETYPE1B) and in assay [2] (GETYPE1A) was < 5.46 nM throughout.
In the case of `COc1ccc2c(Cl)cc(O[C@@H]3C[C@H]4C(=O)N[C@]5(C(=O)NS(=O)(=O)C6(CF)CC6)C[C@H]5/C=C\CC[C@@H](C)C[C@@H](C)[C@H](NC(=O)OC(C)(C)C(F)(F)F)C(=O)N4C3)nc2c1` [Compound 4200], the EC50 in assay [1] (GETYPE1B) was < 5.46 nM; in assay [2] (GETYPE1A) it was 4.82 to 103 nM.
For the compound `CC[C@@H]1C[C@H](C)CC/C=C\[C@@H]2C[C@@]2(C(=O)NS(=O)(=O)C2(C)CC2)NC(=O)[C@@H]2C[C@@H](Oc3cnc4ccc(OC)cc4c3)CN2C(=O)[C@H]1NC(=O)OC(C)(C)C` [Compound 4201, tert-butyl (2R,6S,7R,9R,13aS,14aR,16aS,Z)-7-ethyl-2-(6-methoxyquinolin-3-yloxy)-9-methyl-14a-(1-methylcyclopropylsulfonylcarbamoyl)-5,16-dioxo-1,2,3,5,6,7,8,9,10,11,13a,14,14a,15,16,16a-hexadecahydrocyclopropa[e]pyrrolo[1,2-a][1,4]diazacyclopentadecin-6-ylcarbamate], the EC50 in assay [1] and in assay [2] was < 5.46 nM each time.

These data come from patent US9499550B2 (BRISTOL-MYERS SQUIBB COMPANY, priority 2012, dated 2016).
